Source: patent publication US20210363545A1, “GENETIC SELECTION MARKERS BASED ON ENZYMATIC ACTIVITIES OF THE PYRIMIDINE SALVAGE PATHWAY” (priority 2018, published 2021)
Converted amounts (≈) assume the structure as drawn. Where two headings read alike, the source gives them in different places.

Experiments:
A. niger = test: broth microdilution susceptibility testing according to EUCAST; assay type: cell-based, Aspergillus niger
Description: (§1) To identify encoded A. fumigatus FcyB, FcyA, Uprt, Uk and CntA activities in further fungal species, it was searched for A. fumigatus orthologs in biotechnology-relevant species (Aspergillus niger, Aspergillus oryzae, P. chrysogenum, Komagataella phaffii alias Pichia pastoris, S. cerevisiae, Trichoderma reesei) and in virulence-relevant species (Candida albicans, Cryptococcus neoformans, F. oxysporum). Orthologs to A. fumigatus proteins with an overall identity 40% were considered as putative orthologs if activities could be confirmed by susceptibility testing following a broth microdilution based method according to EUCAST (see Table 10).

P. chrysogenum = test: as above; assay type: cell-based, Penicillium chrysogenum
Description: as §1

C. albicans = test: as above; assay type: cell-based, Candida albicans
Description: as §1

C. neoformans = test: as above; assay type: cell-based, Cryptococcus neoformans
Description: as §1

A. oryzae = test: as above; assay type: cell-based, Aspergillus oryzae
Description: as §1

P. pastoris = test: as above; assay type: cell-based, Komagataella phaffii alias Pichia pastoris
Description: as §1

T. reesei = test: as above; assay type: cell-based, Trichoderma reesei
Description: as §1

[1] = test system: A. fumigatus wt (A1160P+); test: plate growth assay based susceptibility testing on solid AMM; assay type: cell-based, Aspergillus fumigatus; conditions: for pH dependence of activity: A. fumigatus
Experimental: (§2) pH 5 transcriptionally activates fcyB mediated uptake of 5FC. […] Inactivation of fcyB leads to resistance at 10 μg/ml 5FC at pH 5. Inactivation of fcyB leads to resistance on AMM (AMM Composition: 55.5 mM D-glucose, 20.0 mM ammonium tartrate, 7 mM KCl, 2.1 mM MgSO4 x 7H2O, 11.2 mM KH2PO4, 0.09 μM Na2B4O7 x 10H2O, 1 μM CuSO4 x 5H2O, 10 μM FeSO4 x 7H2O, 4.5 μM MnSO4 x 4H2O, 3.1 μM Na2MoO4 x 10H2O, […] ZnSO4 x 7H2O, 0.7% Agar; finally adjusted to pH 6.5 using NaOH before autoclaving) supplemented with 10 μg/ml 5FC and 100 mM citrate buffer pH 5.
(§3) Plate growth assay based susceptibility testing of A. fumigatus and P. chrysogenum was carried out using solid AMM, for F. oxysporum solid PDA was employed. Low pH medium contained 100 mM citrate buffer (pH5), neutral pH medium 100 mM MOPS buffer (pH7). For strains carrying PxylP tunable reporter genes (sGFP, mKate2PER, sGFPMIT, lacZ), 0.5% xylose was supplemented to the medium to induce gene expression.
(§4) Among other fungal species, A. fumigatus is susceptible to 5FC (Te Dorsthorst et al., Antimicrob Agents Chemother 48, 3147-3150 (2004); Te Dorsthorst et al., Antimicrobial agents and chemotherapy 49, 3341-3346 (2005)) and is therefore anticipated to harbor genes encoding CD and UPRT in addition to 5FC uptake. […] To analyze their role in 5FC as well as 5FU activity, fcyA and uprt was inactivated in the A. fumigatus strain A1160P+ (Fraczek, et al., The Journal of antimicrobial chemotherapy 68, 1486-1496 (2013)), termed wt here, using hygromycin and phleomycine resistance based deletion cassettes. Due to the interdependency of 5FC activity and environmental pH (Gsaller et al., Antimicrob Agents Chemother 62 (2018); Te Dorsthorst et al., Antimicrob Agents Chemother 48, 3147-3150 (2004)) the contribution of both enzymes as well as FcyB to 5FC and 5FU activity at both pH5 and pH7 was investigated.

A. fumigatus ΔfcyB = test: as above; assay type: cell-based, Aspergillus fumigatus; conditions: for growth of ΔfcyB: 100 μg/ml
Experimental: as §2, §3, §4

S. cersvisiae = test: broth microdilution susceptibility testing according to EUCAST; assay type: cell-based, S. cerevisiae
Description: as §1

A. fumigatus ΔfcyA = test: plate growth assay based susceptibility testing on solid AMM; assay type: cell-based, Aspergillus fumigatus
Experimental: as §3
(§5) Coding sequences of fcyA and uprt were disrupted in wt (A1160P+) using hygromycin B and zeocin resistance cassettes, respectively. Therefore, deletion constructs comprising approximately 1 kb of 5′ and 3′ NTR linked to the central antibiotic resistance cassette were generated using fusion PCR as previously described (Fraczek, et al., The Journal of antimicrobial chemotherapy 68, 1486-1496 (2013)). Correct integration of constructs was confirmed by Southern analysis (see FIG. 14).
Among other fungal species, A. fumigatus is susceptible to 5FC (Te Dorsthorst et al., Antimicrob Agents Chemother 48, 3147-3150 (2004); Te Dorsthorst et al., Antimicrobial agents and chemotherapy 49, 3341-3346 (2005)) and is therefore anticipated to harbor genes encoding CD and UPRT in addition to 5FC uptake. […]

F. oxysporum = test: broth microdilution susceptibility testing according to EUCAST; assay type: cell-based, Fusarium oxysporum
Description: as §1

A. fumigatus = test: as above; assay type: cell-based, Aspergillus fumigatus
Description: as §1

A. fumigatus Δuprt = test: plate growth assay based susceptibility testing on solid AMM; assay type: cell-based, Aspergillus fumigatus; conditions: for growth of Δuprt strains: 200 μg/ml; for growth after inactivation of uprt: AMM supplemented with 100 μg/ml, pH7
Experimental: Furthermore, 5-FU supplementation inhibits ΔfcyB (see FIG. 4). Inactivation of uprt allows growth of A. fumigatus on AMM supplemented with 100 μg/ml 5FC or 5FU at pH7 (see FIG. 4). At concentrations 10-500 μg/ml 5FC or 5FU, independent of the pH (200 μg/ml 5FC as well as 5FU were also tested and the Δuprt strains grow).
as §3, §5, §4

[2] = test system: A. fumigatus with inactivated cntA; test: growth on AMM supplemented with 5-FUR; assay type: cell-based, Aspergillus fumigatus; conditions: AMM supplemented with 100 μg/ml
[3] = test system: A. fumigatus with inactivated uk; test: growth on AMM supplemented with 5-FUR; assay type: cell-based, Aspergillus fumigatus; conditions: AMM supplemented with 100 μg/ml
[4] = up to 100 μg/ml, regardless of the pH
[5] = Aspergillus niger, pH 5, read-out: MIC
[6] = Aspergillus niger, pH 7, read-out: MIC
[7] = Penicillium chrysogenum, pH 5, read-out: MIC
[8] = Penicillium chrysogenum, pH 7, read-out: MIC
[9] = Candida albicans, pH 5, read-out: MIC
[10] = Candida albicans, pH 7, read-out: MIC
[11] = Cryptococcus neoformans, pH 5, read-out: MIC
[12] = Cryptococcus neoformans, pH 7, read-out: MIC
[13] = Aspergillus oryzae, pH 5, read-out: MIC
[14] = Aspergillus oryzae, pH 7, read-out: MIC
[15] = Komagataella pastoris, pH 5, read-out: MIC
[16] = Komagataella pastoris, pH 7, read-out: MIC
[17] = Trichoderma reesei, pH 5, read-out: MIC
[18] = Trichoderma reesei, pH 7, read-out: MIC
[19] = Saccharomyces cerevisiae, pH 5, read-out: MIC
[20] = Saccharomyces cerevisiae, pH 7, read-out: MIC
[21] = Fusarium oxysporum, pH 5, read-out: MIC
[22] = Fusarium oxysporum, pH 7, read-out: MIC
[23] = Aspergillus fumigatus, pH 5, read-out: MIC
[24] = Aspergillus fumigatus, pH 7, read-out: MIC

Nc1nc(=O)[nH]cc1F [5FC, 5-flucytosine]
MIC (A. niger; pH 5): 0.39 µg/mL (≈ 3.02 µM)
MIC (A. niger; pH 7): 6.25 µg/mL (≈ 48.4 µM)
MIC (P. chrysogenum; pH 5): 0.39 µg/mL (≈ 3.02 µM)
MIC (P. chrysogenum; pH 7): 3.12 µg/mL (≈ 24.2 µM)
MIC (C. albicans; pH 5): 0.39 µg/mL (≈ 3.02 µM)
MIC (C. albicans; pH 7): 0.39 µg/mL (≈ 3.02 µM)
MIC (C. neoformans; pH 5): 0.39 µg/mL (≈ 3.02 µM)
MIC (C. neoformans; pH 7): 25 µg/mL (≈ 194 µM)
MIC (A. oryzae; pH 5): 0.39 µg/mL (≈ 3.02 µM)
MIC (A. oryzae; pH 7): 400 µg/mL (≈ 3100 µM)
MIC (P. pastoris; pH 5): 0.39 µg/mL (≈ 3.02 µM)
MIC (P. pastoris; pH 7): 0.39 µg/mL (≈ 3.02 µM)
MIC (T. reesei; pH 5): >400 µg/mL
MIC (T. reesei; pH 7): >400 µg/mL
susceptibility of WT isolate ([1]; 10 μg/ml, AMM with 100 mM citrate buffer pH 5): highly susceptible
pH dependence of activity [1]: much more active at pH5
level that blocked wt growth ([1]; wt, pH5, plate growth): ≥ 1 µg/mL
level required to block wt growth ([1]; wt, pH7, plate growth): 100 µg/mL
resistance after inactivation of fcyB (A. fumigatus ΔfcyB; 10 μg/ml, pH 5, AMM): resistance
growth of ΔfcyB (A. fumigatus ΔfcyB; pH5): not able to grow
growth of ΔfcyB (A. fumigatus ΔfcyB; pH7): severe growth inhibition
MIC (S. cersvisiae; pH 5): 0.39 µg/mL (≈ 3.02 µM)
MIC (S. cersvisiae; pH 7): 0.39 µg/mL (≈ 3.02 µM)
resistance of ΔfcyA (A. fumigatus ΔfcyA; [4]): full resistance
MIC (F. oxysporum; pH 5): >400 µg/mL
MIC (F. oxysporum; pH 7): >400 µg/mL
MIC (A. fumigatus; pH 5): 0.39 µg/mL (≈ 3.02 µM)
MIC (A. fumigatus; pH 7): 400 µg/mL (≈ 3100 µM)
growth of Δuprt strains (A. fumigatus Δuprt): grow
growth after inactivation of uprt (A. fumigatus Δuprt): allows growth
resistance of Δuprt (A. fumigatus Δuprt; [4]): full resistance

O=c1[nH]c(=O)n([C@@H]2O[C@H](CO)[C@@H](O)[C@H]2O)cc1F [5FUR, 5-fluorouridine]
resistance after inactivation of cntA [2]: significantly increases resistance
MIC (A. niger; [5]): 0.8 µg/mL (≈ 3.05 µM)
MIC (A. niger; [6]): 0.39 µg/mL (≈ 1.49 µM)
MIC (P. chrysogenum; [7]): 3.12 µg/mL (≈ 11.9 µM)
MIC (P. chrysogenum; [8]): 3.12 µg/mL (≈ 11.9 µM)
MIC (C. albicans; [9]): 0.39 µg/mL (≈ 1.49 µM)
MIC (C. albicans; [10]): 0.39 µg/mL (≈ 1.49 µM)
MIC (C. neoformans; [11]): 3.12 µg/mL (≈ 11.9 µM)
MIC (C. neoformans; [12]): 12.5 µg/mL (≈ 47.7 µM)
MIC (A. oryzae; [13]): 6.25 µg/mL (≈ 23.8 µM)
MIC (A. oryzae; [14]): 12.5 µg/mL (≈ 47.7 µM)
MIC (P. pastoris; [15]): 0.39 µg/mL (≈ 1.49 µM)
MIC (P. pastoris; [16]): > 400 µg/mL
MIC (T. reesei; [17]): 0.39 µg/mL (≈ 1.49 µM)
MIC (T. reesei; [18]): 0.39 µg/mL (≈ 1.49 µM)
pH dependence of activity [1]: pH independent
concentrations that significantly inhibit A. fumigatus growth ([1]; AMM): > 100 µg/mL
MIC (S. cersvisiae; [19]): 6.25 µg/mL (≈ 23.8 µM)
MIC (S. cersvisiae; [20]): 25 µg/mL (≈ 95.3 µM)
MIC (F. oxysporum; [21]): > 400 µg/mL
MIC (F. oxysporum; [22]): > 400 µg/mL
MIC (A. fumigatus; [23]): 6.25 µg/mL (≈ 23.8 µM)
MIC (A. fumigatus; [24]): > 400 µg/mL
resistance after inactivation of uk [3]: increases resistance

O=c1[nH]cc(F)c(=O)[nH]1 [5FU, 5-fluorouracil]
MIC (A. niger; [5]): 50 µg/mL (≈ 384 µM)
MIC (A. niger; [6]): 0.39 µg/mL (≈ 3 µM)
MIC (P. chrysogenum; [7]): 3.12 µg/mL (≈ 24 µM)
MIC (P. chrysogenum; [8]): 3.12 µg/mL (≈ 24 µM)
MIC (C. albicans; [9]): 50 µg/mL (≈ 384 µM)
MIC (C. albicans; [10]): 0.39 µg/mL (≈ 3 µM)
MIC (C. neoformans; [11]): 6.25 µg/mL (≈ 48 µM)
MIC (C. neoformans; [12]): 12.5 µg/mL (≈ 96.1 µM)
MIC (A. oryzae; [13]): 200 µg/mL (≈ 1540 µM)
MIC (A. oryzae; [14]): 12.5 µg/mL (≈ 96.1 µM)
MIC (P. pastoris; [15]): 0.39 µg/mL (≈ 3 µM)
MIC (P. pastoris; [16]): > 400 µg/mL
MIC (T. reesei; [17]): 100 µg/mL (≈ 769 µM)
MIC (T. reesei; [18]): 0.39 µg/mL (≈ 3 µM)
growth of wt ([1]; 100 μg/ml, pH5 as well as pH7): blocked growth
pH dependence of activity [1]: pH independent
concentrations that fully inhibit A. fumigatus growth ([1]; typically, AMM): > 100 µg/mL
growth of ΔfcyB (A. fumigatus ΔfcyB; pH5 as well as pH7): blocked growth
effect of supplementation on ΔfcyB (A. fumigatus ΔfcyB; solid Aspergillus minimal medium, FIG. 4): inhibits
MIC (S. cersvisiae; [19]): 0.8 µg/mL (≈ 6.15 µM)
MIC (S. cersvisiae; [20]): 100 µg/mL (≈ 769 µM)
growth of ΔfcyA (A. fumigatus ΔfcyA; 100 μg/ml, pH5 as well as pH7): blocked growth
MIC (F. oxysporum; [21]): 400 µg/mL (≈ 3080 µM)
MIC (F. oxysporum; [22]): > 400 µg/mL
MIC (A. fumigatus; [23]): 50 µg/mL (≈ 384 µM)
MIC (A. fumigatus; [24]): > 400 µg/mL
resistance of Δuprt (A. fumigatus Δuprt; 100 μg/ml, pH5 as well as pH7): high resistance
growth of Δuprt strains (A. fumigatus Δuprt): grow
growth after inactivation of uprt (A. fumigatus Δuprt): allows growth
